Patent publication US6838436B1, “Inhibitors of proteasomal activity for stimulating bone growth” (Osteoscreen Inc., priority 1998, dated 2005)
Where a SMILES comes first, the peptide text is derived from it. The star is where a group is joined. Cbz = O=C(OCc1ccccc1)*; OtBu = CC(C)(C)O*

Experiments:
papain = biological target: T1, papain (Carica papaya, UniProt P00784); settings: cited from earlier work
T1 sequence (P00784 134-345): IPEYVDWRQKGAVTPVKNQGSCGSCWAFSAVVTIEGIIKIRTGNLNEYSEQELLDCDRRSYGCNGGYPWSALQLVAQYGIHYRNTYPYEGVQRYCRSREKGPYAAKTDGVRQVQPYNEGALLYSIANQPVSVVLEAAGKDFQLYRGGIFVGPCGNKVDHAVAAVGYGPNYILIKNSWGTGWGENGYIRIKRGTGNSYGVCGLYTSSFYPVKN

chymotrypsin = chymotrypsin (Bos taurus, UniProt P00766); settings: cited from earlier work
calvaria of normal mice = assay: In vivo assay of effects on murine calvarial bone growth; design: species or system ICR Swiss white mice; settings: for % Increase in Bone Area Compared with Control: p < 0.05; for % Increase in New Bone Width: p < 0.001
Experimental: Male ICR Swiss white mice, aged 4-6 weeks and weighing 13-26 gm, are employed, using 4-5 mice per group. The calvarial bone growth assay is performed as described in PCT application WO95/24211, incorporated by reference. Briefly, the test compound or appropriate control vehicle is injected into the subcutaneous tissue over the right calvaria of normal mice. Typically, the control vehicle is the vehicle in which the compound was solubilized, and is PBS containing 5% DMSO or is PBS containing Tween (2 μl/10 ml). The animals are sacrificed on day 14 and bone growth measured by histomorphometry. Bone samples for quantitation are cleaned from adjacent tissues and fixed in 10% buffered formalin for 24-48 hours, decalcified in 14% EDTA for 1-3 weeks, processed through graded alcohols; and embedded in paraffin wax. Three to five μm sections of the calvaria are prepared, and representative sections are selected for histomorphometric assessment of the effects on bone formation and bone resorption. Sections are measured by using a camera lucida attachment to trace directly the microscopic image onto a digitizing plate. Bone changes are measured on sections cut 200 μm apart, over 4 adjacent 1×1 mm fields on both the injected and noninjected sides of the calvaria. New bone is identified by its characteristic woven structure, and osteoclasts and osteoblasts are identified by their distinctive morphology. Histomorphometry software (OsteoMeasure, Osteometrix, Inc., Atlanta) is used to process digitizer input to determine cell counts and measure areas or perimeters.
Typical treatment regimens for testing utilize application of the compound to be tested over several days of repeated administration.
PSI and MG-132 were assayed in vivo according to the procedure described previously (see “In vivo Assay of Effects of Compounds on Murine Calvarial Bone Growth”, supra). As a control, simvastatin provided a 1.5 fold increase in the number of osteoblasts.
In one experiment, vehicle control, bFGF and varying doses of PSI were tested in the in vivo calvarial bone growth assay. The results are reported as a measurement of total bone area, % increase in area over vehicle control, and % increase in new bone width as shown below.

hair follicles [1] = assay: Stimulation of hair growth after wax hair stripping, subcutaneous injection (Example 9); type: in vivo, Male Swiss ICR mice
Experimental: Male Swiss ICR mice were first treated to remove hair from the scalp and dorsal regions as follows. Paraffin wax was liquefied by heating to 55° C. and the liquefied wax then applied by brush to the scalp and/or back (under anesthesia). The wax was allowed to solidify and then removed. The day following hair stripping, PSI (1 mg/kg/day) was injected subcutaneously three times a day for five days into the scalp and dorsal region. […] The mice were sacrificed on day 21 and histology was performed on the dermis of the scalp and of the dorsal region. […] Upon closer examination, it was observed that mice that had received only vehicle had quiescent hair follicles.

hair follicles [2] = assay: Effects on subcutaneous tissue of the scalp (Example 10); type: in vivo, ICR mice; settings: 1 mg/kg body weight/day injected daily for 5 days; examined 16 days later
Experimental: Effects of PS1 on subcutaneous tissue of the scalp of 6-weeks old ICR mice from longitudinal and transverse sections were determined. PS1 dissolved in 50% propylene glycol, 10% DMSO, and 40% distilled water was injected daily for 5 days (1 mg/kg body weight/day) into the subcutaneous tissue, and the tissue examined histologically 16 days later.

hair follicles [3] = assay: Topical administration of PSI, hair growth (Examples 13 and 14); type: in vivo, mice
Experimental: PSI was prepared as a topical formulation, where the vehicle was 50% propylene glycol, 30% ethanol, 20% deionized water, at 0.1% concentration of PSI. The solution was applied 3 times a day for 5 days. The mice in a treated group were observed as compared to controls similarly treated with vehicle alone.
When the protocol above was repeated using a 0.5% solution of PSI in groups containing 5 mice each, the number of hairs per 0.8 mm^2 was 60 in the treated mice versus about 10 in the control group. The percentage of follicle area in a region of about 0.8 mm was about 30% as an average in the treated group as compared to 15% as an average in the control group.
In order to determine the minimal effective dosage of PSI, when used topically, a dose response curve for PSI was prepared. All experiments were preformed according to current good laboratory practice regulations (21CFR58). The mice were divided into 7 groups, 10 mice each, wherein one group was control treated only with vehicle and groups 1-6 with a series of increasing concentrations of PSI in a vehicle comprising 50% propylene glycol, 30% ethanol, 20% deionized water. The concentrations were 0.006%, 0.012%, 0.025%, 0.05%, 0.11% and 0.5%.
The mice were anesthetized (50 μl Mouse Cocktail containing 3 ml ketamine, 2 ml small animal rompum, 5 ml NaCl), identified by ear punch code, weighed and the hair on the dorsal side removed by waxing as described in Example 6. After waxing, the animals were photographed. On the following day (day 1), 100 μl of PSI at the above concentrations in vehicle was brushed onto the area of removed hair. A similar application of PSI solution was performed daily for an additional 4 days.
On Day 7 mice were anesthetized and a biopsy of the dorsal treatment area taken using a 6 mm dermal punch; the specimens were fixed in 10% buffered formalin and embedded in paraffin wax. Sections were cut using a standard microtome.
Mice were monitored daily for signs of hair growth, and any hair growth was recorded by photography. On day 21 animals were euthanized (75 mg/kg body weight phenobarbital, IP injection), 2 cm hair samples were taken for optical based fiber analysis, and the remaining dorsal treatment area was fixed in 10% buffered formalin for further histological analysis. Analysis included quantification of hair thickness and quantification of mature hair follicles. Results were expressed as the mean=+/−the standard error of the mean. Data were analyzed by repeated measures of analysis of variance followed by the Tukey-Kramer post test P values of <0.05 were considered significant.

proteasomal activity = settings: cited from earlier work

**Q.** Which “concentration up to which no inhibition appears” value (papain) does the source give for `CC[C@H](C)[C@H](NC(=O)[C@H]([C@@H](C)CC)N(C)C(C)=O)C(=O)N[C@H](C(=O)N[C@@H](CC(C)C)C(=O)[C@@]1(C)CO1)[C@@H](C)O` [Epoxomicin] here?
**A.** > 50 µM

**Q.** What about the “concentration up to which no inhibition appears” value (chymotrypsin) of the same compound?
**A.** > 50 µM

**Q.** What does the source list for `CC[C@H](C)[C@H](NC(=O)OCc1ccccc1)C(=O)N[C@@H](CCC(=O)OC(C)(C)C)C(=O)N[C@@H](C)C(=O)N[C@H](C=O)CC(C)C` [PSI, N-carbobenzoyl-Ile-Glu-(OtBu)-Ala-Leu-CHO] (Cbz-IE(OtBu)AL-aldehyde)?
**A.** histological examination of bone growth (calvaria of normal mice; 5 mg/kg/day and 1 mg/kg/day of PSI): confirmation of bone growth; Total Bone Area (calvaria of normal mice; PSI 0.1 mg/kg/day): 0.74 ± 0.02 mm²; % Increase in Bone Area Compared with Control (calvaria of normal mice; PSI 0.1 mg/kg/day): 21.7 ± 3.5%; Total Bone Area (calvaria of normal mice; PSI 1 mg/kg/day): 0.83 ± 0.02 mm²; % Increase in New Bone Width (calvaria of normal mice; PSI 1 mg/kg/day): 19.9 ± 2.0%; % Increase in Bone Area Compared with Control (calvaria of normal mice; PSI 1 mg/kg/day): 35.4 ± 3.4%; Total Bone Area (calvaria of normal mice; PSI 5 mg/kg/day): 0.79 ± 0.03 mm²; % Increase in New Bone Width (calvaria of normal mice; PSI 5 mg/kg/day): 19.9 ± 4.4%; % Increase in Bone Area Compared with Control (calvaria of normal mice; PSI 5 mg/kg/day): 32.1 ± 5.6%; number of hair follicles versus control mice (hair follicles [1]; 1 mg/kg/day subcutaneously three times a day for five days, day 7 dermal punch biopsy): large increase in the number of hair follicles; hair growth rate (hair follicles [1]; 1 mg/kg/day subcutaneously, by day 18): hair growth rate greater than that of the mice in the control group; mature hair follicles in the lower region of the dermis (hair follicles [1]; 1 mg/kg/day subcutaneously, day 21 histology): mature hair follicles in numbers much greater than in controls; numbers of hair follicles (hair follicles [2]): numbers of hair follicles increased; size of the follicle diameter and the root sheath diameter (hair follicles [2]): obvious increase in size of the follicle diameter and the root sheath diameter; effectiveness on hair growth (hair follicles [3]; 0.1% of PSI applied topically 3 times a day for 5 days (additional experiments)): effective; thickness of hair and hair shaft (hair follicles [3]; topical): thicken both the hair and the hair shaft; percentage of follicle area in a region of about 0.8 mm (hair follicles [3]; topical 0.5% solution of PSI, average, control 15%): about 30%; number of hairs per 0.8 mm^2 (hair follicles [3]; topical 0.5% solution of PSI, control about 10): 60; hair growth relative to controls (hair follicles [3]; topical, 0.1% PSI, 3 times a day for 5 days, day 16): stimulation of hair growth relative to the controls; minimal effective dose (hair follicles [3]; topical, applied 1 time a day for 4 days): 0.5%

**Q.** What does the source list for simvastatin?
**A.** increase in the number of osteoblasts (calvaria of normal mice; mouse, in vivo): 1.5 fold; effects on proteasomal activity (proteasomal activity): no effects on proteasomal activity
